Laboratory results from patent publication US20220089575A1, “FARNESOID X RECEPTOR AGONISTS AND USES THEREOF” (Metacrine, Inc., priority 2017, published 2022).

biological target: T1, hFXR (Homo sapiens, UniProt Q96RI1); test: In Vitro FXR Assay (TK): TK-ECRE-luc reporter in transfected CV-1 cells; format: cell-based; settings: 18 hrs, luminescence, maximum efficacy of <25% of the Fexarmine control classified as '+'
T1 construct: expressed in transfected cells; host or cells: CV-1 cells
T1 sequence (Q96RI1 1-486): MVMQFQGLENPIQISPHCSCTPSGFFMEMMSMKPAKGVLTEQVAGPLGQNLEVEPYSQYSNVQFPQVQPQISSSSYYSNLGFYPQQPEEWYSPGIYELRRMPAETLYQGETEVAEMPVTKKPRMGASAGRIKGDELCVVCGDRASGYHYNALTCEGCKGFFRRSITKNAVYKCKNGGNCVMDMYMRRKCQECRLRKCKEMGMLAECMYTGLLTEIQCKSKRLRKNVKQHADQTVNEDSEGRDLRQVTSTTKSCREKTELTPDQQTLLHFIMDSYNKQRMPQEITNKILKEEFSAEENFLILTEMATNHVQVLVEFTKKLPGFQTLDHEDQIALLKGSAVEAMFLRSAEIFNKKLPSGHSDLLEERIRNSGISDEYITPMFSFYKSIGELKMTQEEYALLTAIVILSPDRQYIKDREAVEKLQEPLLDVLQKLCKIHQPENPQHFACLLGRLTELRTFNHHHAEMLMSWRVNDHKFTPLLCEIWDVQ
T1 sequence (P19793 1-462 partner): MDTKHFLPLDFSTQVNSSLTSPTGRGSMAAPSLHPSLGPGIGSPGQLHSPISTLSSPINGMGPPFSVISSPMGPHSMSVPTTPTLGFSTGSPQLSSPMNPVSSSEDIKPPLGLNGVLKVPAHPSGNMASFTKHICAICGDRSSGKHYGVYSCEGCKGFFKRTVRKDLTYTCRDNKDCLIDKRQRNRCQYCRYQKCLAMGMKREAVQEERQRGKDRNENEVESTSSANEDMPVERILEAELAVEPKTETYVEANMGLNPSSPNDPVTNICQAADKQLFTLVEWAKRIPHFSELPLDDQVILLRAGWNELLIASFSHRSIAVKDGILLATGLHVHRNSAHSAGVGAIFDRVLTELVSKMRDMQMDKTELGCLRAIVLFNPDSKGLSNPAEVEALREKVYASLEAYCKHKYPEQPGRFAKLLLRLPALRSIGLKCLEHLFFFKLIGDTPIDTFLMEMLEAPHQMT
How it was run: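 CV-1 cells transiently co-transfected with hFXR, hRXR, TK-ECRE-luc and pCMX-YFP plasmids in charcoal-stripped serum medium. Serially diluted compounds added, cells incubated 18 h at 37° C, then lysed and luminescence read.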

| EC50 [nM] | SMILES |
| --- | --- |
| ≤ 250 | COc1ccc([C@H]2CC[C@H](CN(c3cc(-c4coc(C5CC5)n4)ccn3)C(=O)[C@H]3CC[C@H](CC(=O)O)CC3)CC2)cc1C#N [Compound 21.12, 2-(trans-4-(((trans-4-(3-Cyano-4-methoxyphenyl)cyclohexyl)methyl)(4-(2-cyclopropyloxazol-4-yl)pyridin-2-yl)carbamoyl)cyclohexyl)acetic acid] |
| ≤ 250 | COc1ccc([C@H]2CC[C@H](CN(c3cc(-c4cnc(C5CC5)s4)ccn3)C(=O)[C@H]3CC[C@H](OC(=O)N4CC(O)C4)CC3)CC2)nc1C [Compound 7.06, trans-4-((4-(2-Cyclopropylthiazol-5-yl)pyridin-2-yl)((trans-4-(5-methoxy-6-methylpyridin-2-yl)cyclohexyl)methyl)carbamoyl)cyclohexyl 3-hydroxyazetidine-1-carboxylate] |
| ≤ 250 | COc1ccc([C@H]2CC[C@H](CN(c3cc(-c4coc(C5CC5)n4)ccn3)C(=O)[C@H]3CC[C@H](OC(=O)N[C@@H]4CCCN(C)C4)CC3)CC2)nc1C [Compound 6.80, trans-4-((4-(2-Cyclopropyloxazol-4-yl)pyridin-2-yl)((trans-4-(5-methoxy-6-methylpyridin-2-yl)cyclohexyl)methyl)carbamoyl)cyclohexyl ((R)-1-methylpiperidin-3-yl)carbamate] |
| 250 to 1000 | COc1ccc([C@H]2CC[C@H](CN(c3cc(-c4cnc(C5CC5)s4)ccn3)C(=O)[C@H]3CC[C@H](C(=O)O)CC3)CC2)nc1C [Compound 17.10, trans-4-((4-(2-Cyclopropylthiazol-5-yl)pyridin-2-yl)((trans-4-(5-methoxy-6-methylpyridin-2-yl)cyclohexyl)methyl)carbamoyl) cyclohexanecarboxylic acid] |
| ≤ 250 | COc1ccc([C@H]2CC[C@H](CN(c3cc(-c4cnn(C(C)C)c4)ccn3)C(=O)[C@H]3CC[C@H](OC(=O)N4CC(OC)C4)CC3)CC2)cc1C#N [Compound 7.48, trans-4-(((trans-4-(3-Cyano-4-methoxyphenyl)cyclohexyl)methyl)(4-(1-isopropyl-1H-pyrazol-4-yl)pyridin-2-yl)carbamoyl)cyclohexyl 3-methoxyazetidine-1-carboxylate] |
| ≤ 250 | COc1ccc([C@H]2CC[C@H](CN(c3cccc(-c4cnc(C5CC5)s4)c3)C(=O)[C@H]3CC[C@H](NC(=O)C(C)O)CC3)CC2)cc1C (stereo partly drawn) [Compound 27.01, trans-N-(3-(2-Cyclopropylthiazol-5-yl)phenyl)-4-(2-hydroxypropanamido)-N-((trans-4-(4-methoxy-3-methylphenyl)cyclohexyl)methyl) cyclohexanecarboxamide] |
| ≤ 250 | COc1ccc([C@H]2CC[C@H](CN(c3cc(-c4coc(C5CC5)n4)ccn3)C(=O)[C@H]3CC[C@H](OC(=O)N4CC(C5COC5)C4)CC3)CC2)nc1C [Compound 6.84, trans-4-((4-(2-Cyclopropyloxazol-4-yl)pyridin-2-yl)((trans-4-(5-methoxy-6-methylpyridin-2-yl)cyclohexyl)methyl)carbamoyl)cyclohexyl 3-(oxetan-3-yl) azetidine-1-carboxylate] |
| ≤ 250 | COc1ccc([C@H]2CC[C@H](CN(c3cccc(-c4cnc(C5CC5)s4)c3)C(=O)[C@H]3CC[C@H](NS(C)(=O)=O)CC3)CC2)cc1C [Compound 25.11, trans-N-(3-(2-Cyclopropylthiazol-5-yl)phenyl)-N-((trans-4-(4-methoxy-3-methylphenyl)cyclohexyl)methyl)-4-(methylsulfonamido) cyclohexanecarboxamide] |
| ≤ 250 | COc1ccc([C@H]2CC[C@H](CN(c3cccc(-c4coc(C5CC5)n4)c3)C(=O)[C@H]3CC[C@H](C(=O)O)CC3)CC2)cc1C#N [Compound 18, trans-4-(((trans-4-(3-Cyano-4-methoxyphenyl)cyclohexyl)methyl)(3-(2-cyclopropyloxazol-4-yl)phenyl)carbamoyl)cyclohexanecarboxylic acid] |
| ≤ 250 | COc1ccc([C@H]2CC[C@H](CN(c3cccc(-c4cnn(C5CC5)c4)c3)C(=O)[C@H]3CC[C@H](OC(=O)N4CC(C[S+](C)[O-])C4)CC3)CC2)cc1C (stereo partly drawn) [Compound 8, trans-4-((3-(1-Cyclopropyl-1H-pyrazol-4-yl)phenyl)((trans-4-(4-methoxy-3-methylphenyl)cyclohexyl)methyl)carbamoyl)cyclohexyl 3-((methylsulfinyl)methyl)azetidine-1-carboxylate] |
| ≤ 250 | COc1ccc([C@H]2CC[C@H](CN(c3cccc(-c4cnn(C(C)C)c4)c3)C(=O)[C@H]3CC[C@H](NC(=O)OC(C)(C)C)CC3)CC2)cc1C [Compound 18.16, tert-Butyl (trans-4-((3-(1-isopropyl-1H-pyrazol-4-yl)phenyl)((trans-4-(4-methoxy-3-methylphenyl)cyclohexyl)methyl)carbamoyl)cyclohexyl) carbamate] |
| ≤ 250 | COCCNC(=O)O[C@H]1CC[C@H](C(=O)N(C[C@H]2CC[C@H](c3ccc(OC)c(C#N)c3)CC2)c2cc(-c3cnn(C(C)C)c3)ccn2)CC1 [Compound 6.34, trans-4-(((trans-4-(3-Cyano-4-methoxyphenyl)cyclohexyl)methyl)(4-(1-isopropyl-1H-pyrazol-4-yl)pyridin-2-yl)carbamoyl)cyclohexyl (2-methoxyethyl)carbamate] |
| ≤ 250 | COCCCO[C@H]1CC[C@H](C(=O)N(C[C@H]2CC[C@H](c3ccc(OC)c(C)c3)CC2)c2cccc(-c3cnc(OC)s3)c2)CC1 [Compound 13.02, trans-N-((trans-4-(4-Methoxy-3-methylphenyl)cyclohexyl)methyl)-4-(3-methoxypropoxy)-N-(3-(2-methoxythiazol-5-yl)phenyl) cyclohexanecarboxamide] |
| ≤ 250 | COc1ccc([C@H]2CC[C@H](CN(c3cc(-c4coc(C5CC5)n4)ccn3)C(=O)[C@H]3CC[C@H](OC(=O)N4CCN(C)CC4)CC3)CC2)cc1C [Compound 6.64, trans-4-((4-(2-Cyclopropyloxazol-4-yl)pyridine-2-yl)((trans-4-(4-methoxy-3-methylphenyl)cyclohexyl)methyl)carbamoyl)cyclohexyl 4-methylpiperazine-1-carboxylate] |
| ≤ 250 | CCCCOC(=O)[C@H]1CC[C@H](C(=O)N(C[C@H]2CC[C@H](c3ccc(OC)c(C)c3)CC2)c2cccc(-c3cnn(C4CC4)c3)c2)CC1 [Compound 22.02, trans-Butyl 4-((3-(1-cyclopropyl-1H-pyrazol-4-yl)phenyl)((trans-4-(4-methoxy-3-methylphenyl)cyclohexyl)methyl)carbamoyl) cyclohexanecarboxylate] |
| ≤ 250 | COc1ccc([C@H]2CC[C@H](CN(c3cccc(-c4coc(C(C)C)n4)c3)C(=O)[C@H]3CC[C@H](OC(=O)NCCCO)CC3)CC2)nc1C [Compound 6.49, trans-4-((3-(2-Isopropyloxazol-4-yl)phenyl)((trans-4-(5-methoxy-6-methylpyridin-2-yl)cyclohexyl)methyl)carbamoyl)cyclohexyl (3-hydroxypropyl)carbamate] |
| ≤ 250 | CCOC(=O)NC[C@H]1CC[C@H](C(=O)N(C[C@H]2CC[C@H](c3ccc(OC)c(C)n3)CC2)c2cc(-c3coc(C4CC4)n3)ccn2)CC1 [Compound 26.28] |
| ≤ 250 | COc1ccc([C@H]2CC[C@H](CN(c3cccc(-c4cnc(C5CC5)s4)c3)C(=O)[C@H]3CC[C@H](OC(=O)N4CC(O)C4)CC3)CC2)nc1C#N [Compound 7.09, trans-4-(((trans-4-(6-Cyano-5-methoxypyridin-2-yl)cyclohexyl)methyl)(3-(2-cyclopropylthiazol-5-yl)phenyl)carbamoyl)cyclohexyl 3-hydroxyazetidine-1-carboxylate] |
| ≤ 250 | CCCC(=O)N[C@H]1CC[C@H](C(=O)N(C[C@H]2CC[C@H](c3ccc(OC)c(C)c3)CC2)c2cccc(-c3cnc(C4CC4)s3)c2)CC1 [Compound 25.16, trans-4-Butyramido-N-(3-(2-cyclopropylthiazol-5-yl)phenyl)-N-((trans-4-(4-methoxy-3-methylphenyl)cyclohexyl)methyl) cyclo hexanecarboxamide] |
| ≤ 250 | COc1ccc([C@H]2CC[C@H](CN(c3cccc(-c4cnn(C5CC5)c4)c3)C(=O)[C@H]3CC[C@H](NC(=O)COCCO)CC3)CC2)cc1C [Compound 32.01, trans-N-(3-(1-Cyclopropyl-1H-pyrazol-4-yl)phenyl)-4-(2-(2-hydroxyethoxy)acetamido)-N-((trans-4-(4-methoxy-3-methylphenyl)cyclohexyl)methyl)cyclohexanecarboxamide] |
